Common to all, as to assay type: cell-based
Assay [1] has as its target T1, hTLR8 (human Toll-like receptor 8) (Homo sapiens, UniProt Q9NR97).
T1 construct: host or cells: HEK-Blue hTLR8 (HEK293-derived reporter cells)
T1 sequence (Q9NR97 27-1041): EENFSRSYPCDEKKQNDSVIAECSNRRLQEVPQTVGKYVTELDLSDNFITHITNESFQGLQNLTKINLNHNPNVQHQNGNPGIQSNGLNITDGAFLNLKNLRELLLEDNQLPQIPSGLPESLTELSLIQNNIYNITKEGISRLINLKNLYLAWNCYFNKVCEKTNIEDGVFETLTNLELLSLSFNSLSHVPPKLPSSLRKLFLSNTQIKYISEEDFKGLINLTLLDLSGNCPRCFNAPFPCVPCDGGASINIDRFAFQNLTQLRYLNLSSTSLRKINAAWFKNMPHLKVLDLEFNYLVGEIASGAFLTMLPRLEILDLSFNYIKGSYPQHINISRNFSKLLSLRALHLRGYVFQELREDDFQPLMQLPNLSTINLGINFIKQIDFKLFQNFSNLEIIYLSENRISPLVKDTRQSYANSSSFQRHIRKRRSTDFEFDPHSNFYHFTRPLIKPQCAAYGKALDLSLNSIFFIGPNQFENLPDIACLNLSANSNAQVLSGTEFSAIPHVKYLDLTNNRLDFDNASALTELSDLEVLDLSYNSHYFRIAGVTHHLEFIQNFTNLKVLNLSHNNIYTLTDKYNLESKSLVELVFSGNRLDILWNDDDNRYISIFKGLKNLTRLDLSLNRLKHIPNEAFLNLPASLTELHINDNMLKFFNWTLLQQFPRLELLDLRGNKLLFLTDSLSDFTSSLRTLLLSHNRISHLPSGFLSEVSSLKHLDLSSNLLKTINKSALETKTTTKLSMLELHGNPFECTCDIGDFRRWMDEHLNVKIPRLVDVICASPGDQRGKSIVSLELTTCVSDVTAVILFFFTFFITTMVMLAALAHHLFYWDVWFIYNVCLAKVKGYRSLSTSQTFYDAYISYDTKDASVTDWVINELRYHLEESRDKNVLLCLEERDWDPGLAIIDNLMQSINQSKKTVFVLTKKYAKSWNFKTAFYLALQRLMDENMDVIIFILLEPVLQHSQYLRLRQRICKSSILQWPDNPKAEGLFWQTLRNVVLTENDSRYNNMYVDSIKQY
Kind of assay: hTLR8 cell assay (HEK-Blue hTLR8 reporter cells). The settings on record: 24 hours, OD 650 nm. Put shortly:
(§1)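 HEK-Blue reporter cells in HEK-Blue Detection medium (50000 cells/mL) were exposed to test compounds for 24 hours at 37° C, 5% CO2. Agonism was read from supernatant incubated 1 hour at 37° C with QUANTI-Blue, measured as optical density at 650 nm.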

The target of assay [2] is T2, hTLR7 (human Toll-like receptor 7) (Homo sapiens, UniProt Q9NYK1).
T2 construct: host or cells: HEK-Blue hTLR7 (HEK293-derived reporter cells)
T2 sequence (Q9NYK1 27-1049): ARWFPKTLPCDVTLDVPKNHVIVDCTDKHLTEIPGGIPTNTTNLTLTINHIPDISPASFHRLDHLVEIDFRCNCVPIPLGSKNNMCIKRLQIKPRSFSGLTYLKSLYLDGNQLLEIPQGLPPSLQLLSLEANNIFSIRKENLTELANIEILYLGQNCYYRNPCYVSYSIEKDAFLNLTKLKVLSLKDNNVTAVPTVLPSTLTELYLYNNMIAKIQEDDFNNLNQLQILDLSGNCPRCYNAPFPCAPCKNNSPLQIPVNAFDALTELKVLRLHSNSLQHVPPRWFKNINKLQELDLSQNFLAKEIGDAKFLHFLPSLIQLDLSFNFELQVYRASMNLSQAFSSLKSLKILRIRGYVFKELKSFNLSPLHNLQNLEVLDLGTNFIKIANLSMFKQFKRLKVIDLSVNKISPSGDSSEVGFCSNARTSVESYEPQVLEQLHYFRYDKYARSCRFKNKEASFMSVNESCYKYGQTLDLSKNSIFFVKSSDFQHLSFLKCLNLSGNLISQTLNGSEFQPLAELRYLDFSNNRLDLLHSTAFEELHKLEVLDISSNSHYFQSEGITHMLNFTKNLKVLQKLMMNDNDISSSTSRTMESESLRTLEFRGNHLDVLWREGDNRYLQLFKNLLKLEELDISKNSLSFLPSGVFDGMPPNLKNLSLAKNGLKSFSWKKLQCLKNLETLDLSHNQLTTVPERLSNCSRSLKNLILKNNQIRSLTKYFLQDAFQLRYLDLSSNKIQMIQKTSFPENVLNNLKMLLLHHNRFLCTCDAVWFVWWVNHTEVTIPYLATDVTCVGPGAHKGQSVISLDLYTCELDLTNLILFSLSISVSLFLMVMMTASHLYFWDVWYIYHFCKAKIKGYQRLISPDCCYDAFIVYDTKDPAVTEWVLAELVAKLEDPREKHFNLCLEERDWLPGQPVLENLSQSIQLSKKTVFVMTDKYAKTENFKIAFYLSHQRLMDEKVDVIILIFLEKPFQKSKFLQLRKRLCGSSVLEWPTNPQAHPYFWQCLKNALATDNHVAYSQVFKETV
Kind of assay: hTLR7 cell assay (HEK-Blue hTLR7 reporter cells). The conditions noted are these: 24 hours, OD 650 nm. An outline of the steps:
as §1

In assay [3] the test system is human PBMC (human peripheral blood mononuclear cells). Kind of assay: PBMC screening assay: induction of TNF-α production. The settings on record: read-out: EC50 (μM) TNF-α (hPBMC). Here is the method: The payload compounds of Formula (II′) were assayed to evaluate the induction of TNF-α production in human PBMC (human peripheral blood mononuclear cells).
Human peripheral blood mononuclear cells (PBMC) were obtained from Allcells. […] PBMC were incubated for 24 hours at 37° C. in a 5% CO2 humidified incubator. The following day PBMC plates were centrifuged at 500×g for 5 minutes and the growth media was removed. 200 μL of compound prepared in growth media at a series of diluted concentrations ranging from 2.54 nM to 50 μM were added to PBMC in duplicate and incubated for 24 hours at 37° C. in a 5% CO2 incubator. Prior to supernatant harvest, cells were spun at 500×g for 5 minutes to remove cell debris. TNF-α activity was assessed in the supernatant by ELISA (Elabscience) per the manufacturer's instructions. Optical density at 450 nm (ELISA) was analyzed using a plate reader.

The mark [4] stands for this setting: human PBMC, 24 hours, TNF-α by ELISA, class symbols.

The structures appear in SMILES notation. Read-outs that look alike come from different tables or passages of the source.

Usually EC50 stands for the concentration giving half of the maximal effect. With `CC(C)(O)Cn1c(COCC(F)(F)F)nc2c(N)nc3cc(Cc4cccc(CN)c4)ccc3c21` [Compound 53, 1-(4-amino-7-(3-(aminomethyl)benzyl)-2-((2,2,2-trifluoroethoxy)methyl)-1H-imidazo[4,5-c]quinolin-1-yl)-2-methylpropan-2-ol], the EC50 in assay [1] is < 5 µM; in assay [2], < 1 µM; in assay [3] (setting [4]) it was < 0.64 µM.

On to `CCOCc1nc2c(N)nc3cc(Cc4ccc(CN)s4)ccc3c2n1CC(C)(C)O` [Compound 147, 1-(4-amino-7-((5-(aminomethyl)thiophen-2-yl)methyl)-2-(ethoxymethyl)-1H-imidazo[4,5-c]quinolin-1-yl)-2-methylpropan-2-ol], for which the EC50 in assay [1] is < 5 µM; in assay [2], < 1 µM; in assay [3] (setting [4]), < 0.64 µM.

`CCCCc1nc2c(N)nc3cc(Cc4ccc5c(c4)C(N)CCC5)ccc3c2n1CC(C)(C)O` (stereo not drawn) [Compound 57, 1-(4-amino-7-((8-amino-5,6,7,8-tetrahydronaphthalen-2-yl)methyl)-2-butyl-1H-imidazo[4,5-c]quinolin-1-yl)-2-methylpropan-2-ol]: the concentration giving a half-maximal response (EC50) in assay [1] was < 5 µM; in assay [2], < 1 µM; in assay [3] (Homo sapiens, PBMC, 24 h), < 0.64 µM.

For the compound `CCCCc1nc2c(N)nc3cc(Cc4ccc(C(C)(C)CN)cc4)ccc3c2n1CC(C)(C)O` [Compound 70, 1-(4-amino-7-(4-(1-amino-2-methylpropan-2-yl)benzyl)-2-butyl-1H-imidazo[4,5-c]quinolin-1-yl)-2-methylpropan-2-ol], the EC50 in assay [1] was < 5 µM; in assay [2] it was < 1 µM; in assay [3] (setting [4]) it was < 0.64 µM.

As for `CCCCc1nc2c(N)nc3cc(C(C)c4cccc(CN)c4)ccc3c2n1CC(C)(C)O` (stereo not drawn) [Compound 56, 1-(4-amino-7-(1-(3-(aminomethyl)phenyl)ethyl)-2-butyl-1H-imidazo[4,5-c]quinolin-1-yl)-2-methylpropan-2-ol], the concentration giving a half-maximal response (EC50) in assay [1] was < 5 µM; in assay [2], < 1 µM; in assay [3] (setting [4]), < 0.64 µM.

Consider `CCOCc1nc2c(N)nc3cc(Cc4ccc(CCN)cc4)ccc3c2n1CC(C)(C)O` [Compound 2, 1-(4-amino-7-(4-(2-aminoethyl)benzyl)-2-(ethoxymethyl)-1H-imidazo[4,5-c]quinolin-1-yl)-2-methylpropan-2-ol], for which the EC50 in assay [1] was 5 to 20 µM; in assay [2], 1 to 10 µM; in assay [3] (Homo sapiens, PBMC, 24 h), > 0.64 µM.

Turning to `CCC[C@@H](C)c1nc2c(N)nc3cc(Cc4ccccc4)ccc3c2n1CC(C)(C)OCCN` [Compound 30, (R)-1-(2-(2-aminoethoxy)-2-methylpropyl)-7-benzyl-2-(pentan-2-yl)-1H-imidazo[4,5-c]quinolin-4-amine], the EC50 in assay [1] was < 5 µM; in assay [2] it was 1 to 10 µM; in assay [3] (setting [4]), > 0.64 µM.

In the case of `CCC[C@@H](C)c1nc2c(N)nc3cc(Cc4ccc(CCN)cc4)ccc3c2n1CC(C)(C)O` [Compound 9, (R)-1-(4-amino-7-(4-(2-aminoethyl)benzyl)-2-(pentan-2-yl)-1H-imidazo[4,5-c]quinolin-1-yl)-2-methylpropan-2-ol], the 50% effective concentration (EC50) in assay [1] was > 20 µM; in assay [2] it was > 10 µM; in assay [3] (Homo sapiens, PBMC, 24 h) it was < 0.64 µM.

In the case of `CCCCc1nc2c(N)nc3cc(Cc4ccc(CCN)cc4)ccc3c2n1CC(C)(C)O` [Compound 19, 1-(4-amino-7-(4-(2-aminoethyl)benzyl)-2-butyl-1H-imidazo[4,5-c]quinolin-1-yl)-2-methylpropan-2-ol], the EC50 in assay [1] was < 5 µM; in assay [2] it was < 1 µM; in assay [3] (Homo sapiens, PBMC, 24 h), < 0.64 µM.

Consider `CCCCc1nc2c(N)nc3cc(Cc4ccc(CN)s4)ccc3c2n1CC(C)(C)O` [Compound 69, 1-(4-amino-7-((5-(aminomethyl)thiophen-2-yl)methyl)-2-butyl-1H-imidazo[4,5-c]quinolin-1-yl)-2-methylpropan-2-ol], for which the EC50 in assay [1] is < 5 µM; in assay [2], < 1 µM; in assay [3] (setting [4]) it was < 0.64 µM.

The values are drawn from patent US20250325687A1, “CONJUGATE COMPRISING TOLL-LIKE RECEPTOR AGONIST” (MABSOFT THERAPEUTICS (SHANGHAI) CO., LTD., priority 2022, published 2025).
